Among the data in US20170157135A1 (Novogen Limited, priority 2013, published 2017) are IC50 values, retold here.

Some results are limits rather than exact numbers.

What all share (assay type): cell-based
Assay [1] deals with SK-N-SH neuroblastoma cells. Description: Anti-proliferative assay (cell-titre luminescent), SK-N-SH. The conditions noted are these: Homo sapiens, 72 hours, luminescence. The method, then: (§1) The ability of compounds 2002, 2009 and 2013-2064 to inhibit the proliferation of cancer cells representative of neuroblastoma, melanoma, prostate cancer, colorectal cancer, non-small cell lung carcinoma, and triple negative breast cancer was assessed. These studies were conducted by contract research (GVK-BIO). Briefly, a pre-determined number of cells as calculated from cell growth assays for each of the cell lines employed were seeded into their respective culture medium (using ATCC culture parameters—http://www.atcc.org) and cultured for 24 h at 37° C. and 5% CO2 in 96-well culture plates. Once attached, each cell line was then exposed to various concentrations of each respective analogue (30, 10, 3, 1, 0.3 and 0.1 μM), cultured for a further 72 hours and exposed to cell-titre luminescent reagent (100 μL/well) for a further 30 minutes). Luminescence was captured using an EnVision multilabel reader and the data for each analogue concentration compared against no treatment control. Cell viability was normalized to control (vehicle alone) and dose-response curves, and half maximal effective concentration (EC50) values were determined using Graph Pad Prism 6 (nonlinear regression sigmoidal dose-response variable slope).

The subject of assay [2] is MDA-MB-231 breast cancer cells. Kind of assay: Anti-proliferative assay (cell-titre luminescent), MDA-MB-231. To be noted: Homo sapiens; MDA-MB-231, 72 hours, luminescence. The method, then: as §1
For assay [3], the system named is PC3 prostate cancer cells. Description: Anti-proliferative assay (cell-titre luminescent), PC3. To be noted: PC3, 72 hours, luminescence. The method, then:
as §1

In the next assay the test system is SK-Mel-28 melanoma cells. Kind of assay: Anti-proliferative assay (cell-titre luminescent), SK-Mel-28. To be noted: Homo sapiens; SK-Mel-28, 72 hours, luminescence. The method, then: as §1
A further assay relates to A549 lung (NSLC) cells. Description: Anti-proliferative assay (cell-titre luminescent), A549. The conditions noted are these: Homo sapiens; A549, 72 hours, luminescence. The method, then:
as §1

In assay [4] the test system is CaCo2 colorectal cancer cells. Description: Anti-proliferative assay (cell-titre luminescent), CaCo2. The conditions noted are these: Homo sapiens, Caco-2; CaCo2, 72 hours, luminescence. The method, then:
as §1

The subject of assay [5] is DU145 prostate cancer cells. Kind of assay: Anti-proliferative assay (cell-titre luminescent), DU145. To be noted: Homo sapiens, DU-145; DU145, 72 hours, luminescence. The method, then:
as §1

As usually defined, the IC50 is the point on the concentration scale where inhibition reaches its midpoint. A lower IC50 goes with greater potency. As to `COc1ccc(CCN2CCN(C(=O)c3c(C)n(CCCN(C)C)c4ccc(OC)cc34)CC2)cc1` [Compound 2045, (1-(3-(dimethylamino)propyl)-5-methoxy-2-methyl-1H-indol-3-yl)(4-(4-methoxyphenethyl)piperazin-1-yl)methanone], the IC50 (in assay [1]; in assay [2]; in assay [3]; in the assay on SK-Mel-28 melanoma cells; in the assay on A549 lung (NSLC) cells; in assay [4]) was above 30 µM each time. In assay [5], this molecule had a half-inhibitory concentration (IC50) above 30 µM.

`COc1ccc2c(c1)c(C(=O)N1CCN(CCc3ccc4c(c3)OCO4)CC1)c(C)n2CCCN(C)C` [Compound 2046, (4-(2-(benzo[d][1,3]dioxol-5-yl)ethyl)piperazin-1-yl)(1-(3-(dimethylamino)propyl)-5-methoxy-2-methyl-1H-indol-3-yl)methanone]: the IC50 in assay [1] stood at 7.9 µM; in assay [2], 11.3 µM; in assay [3], 20.3 µM; with SK-Mel-28 melanoma cells it was 4.4 µM; with A549 lung (NSLC) cells it was 14.4 µM; in assay [4] it was 8 µM. Further, 13.3 µM corresponded to half-maximal inhibition in assay [5] (IC50).

Regarding `COc1ccc2c(c1)c(C(=O)N1CCN(CCc3cccc(F)c3)CC1)c(C)n2CCCN(C)C` [Compound 2047, (1-(3-(dimethylamino)propyl)-5-methoxy-2-methyl-1H-indol-3-yl)(4-(3-fluorophenethyl)piperazin-1-yl)methanone], the IC50 in assay [1] worked out at 10.9 µM; in assay [2], 12 µM; in assay [3], 14.9 µM; in the assay with SK-Mel-28 melanoma cells it was 13.5 µM; in the assay with A549 lung (NSLC) cells, 14.3 µM; in assay [4], 8.8 µM. For the same molecule, the midpoint of inhibition in assay [5], the IC50, lay at 13.6 µM.

Regarding `COc1cccc(CCN2CCN(C(=O)c3c(C)n(CCCN(C)C)c4ccc(OC)cc34)CC2)c1` [Compound 2048, (1-(3-(dimethylamino)propyl)-5-methoxy-2-methyl-1H-indol-3-yl)(4-(3-methoxyphenethyl)piperazin-1-yl)methanone], the IC50 (in assay [1]; in assay [2]; in assay [3]; in the assay with SK-Mel-28 melanoma cells; in the assay on A549 lung (NSLC) cells; in assay [4]) was above 30 µM in each case. This molecule also gave an IC50 in assay [5] above 30 µM.

In the case of `COc1ccc2c(c1)c(C(=O)N1CCN(CCc3ccccc3)CC1)c(C)n2CCCN(C)C` [Compound 2049, (1-(3-(dimethylamino)propyl)-5-methoxy-2-methyl-1H-indol-3-yl)(4-phenethylpiperazin-1-yl)methanone], the IC50 in assay [1] is 8.9 µM; in assay [2] it was 7.5 µM; in assay [3], 8.6 µM; with SK-Mel-28 melanoma cells, 8.7 µM; in the assay on A549 lung (NSLC) cells, above 30 µM; in assay [4], above 30 µM. The IC50 in assay [5] is above 30 µM.

Consider `CCN(CC)CCCn1c(C)c(C(=O)N2CCN(CCc3ccc(F)cc3)CC2)c2cc(OC)ccc21` [Compound 2050, (1-(3-(diethylamino)propyl)-5-methoxy-2-methyl-1H-indol-3-yl)(4-(4-fluorophenethyl)piperazin-1-yl)methanone], for which the IC50 in assay [1] was found to be 21.4 µM; in assay [2], 14 µM; in assay [3] it was 26.4 µM; with SK-Mel-28 melanoma cells it was 5.3 µM; in the assay with A549 lung (NSLC) cells it was 19.8 µM; in assay [4] it was 10.4 µM. This molecule showed an IC50 in assay [5] of 15.9 µM.

Take `CCN(CC)CCCn1c(C)c(C(=O)N2CCN(CCc3ccc(OC)cc3)CC2)c2cc(OC)ccc21` [Compound 2051, (1-(3-(diethylamino)propyl)-5-methoxy-2-methyl-1H-indol-3-yl)(4-(4-methoxyphenethyl)piperazin-1-yl)methanone]: the concentration for half-maximal inhibition (IC50) in assay [1] is 10.9 µM; in assay [2] it was 10.3 µM; in assay [3], above 30 µM; with SK-Mel-28 melanoma cells, 6 µM; with A549 lung (NSLC) cells, above 30 µM; in assay [4], above 30 µM. The molecule also showed an IC50 in assay [5] above 30 µM.

On to `CCN(CC)CCCn1c(C)c(C(=O)N2CCN(CCc3ccc4c(c3)OCO4)CC2)c2cc(OC)ccc21` [Compound 2052, (4-(2-(benzo[d][1,3]dioxol-5-yl)ethyl)piperazin-1-yl)(1-(3-(diethylamino)propyl)-5-methoxy-2-methyl-1H-indol-3-yl)methanone], for which the IC50 was determined as 10.9 µM in assay [1]; 12.7 µM in assay [2]; 10.9 µM in assay [3]; 5.7 µM with SK-Mel-28 melanoma cells; 11.8 µM in the assay with A549 lung (NSLC) cells; 16 µM in assay [4]. The molecule further registered an IC50 in assay [5] of 9.2 µM.

For the molecule `CCN(CC)CCCn1c(C)c(C(=O)N2CCN(CCc3cccc(F)c3)CC2)c2cc(OC)ccc21` [Compound 2053, (1-(3-(diethylamino)propyl)-5-methoxy-2-methyl-1H-indol-3-yl)(4-(3-fluorophenethyl)piperazin-1-yl)methanone], the IC50 was determined as 4.8 µM in assay [1]; 12.6 µM in assay [2]; 11 µM in assay [3]; 4.7 µM in the assay on SK-Mel-28 melanoma cells; 13.5 µM in the assay on A549 lung (NSLC) cells; 12.2 µM in assay [4]. For the same molecule, the IC50 in assay [5] was determined as 13.6 µM.

In the case of `CCN(CC)CCCn1c(C)c(C(=O)N2CCN(CCc3cccc(OC)c3)CC2)c2cc(OC)ccc21` [Compound 2054, (1-(3-(diethylamino)propyl)-5-methoxy-2-methyl-1H-indol-3-yl)(4-(3-methoxyphenethyl)piperazin-1-yl)methanone], the 50% inhibitory concentration (IC50) is 10.4 µM in assay [1]; 11.8 µM in assay [2]; 6.9 µM in assay [3]; 5.4 µM in the assay with SK-Mel-28 melanoma cells; 17.8 µM in the assay on A549 lung (NSLC) cells; above 30 µM in assay [4]. The molecule also came in with an IC50 in assay [5] above 30 µM.

In the case of `CCN(CC)CCCn1c(C)c(C(=O)N2CCN(CCc3ccccc3)CC2)c2cc(OC)ccc21` [Compound 2055, (1-(3-(diethylamino)propyl)-5-methoxy-2-methyl-1H-indol-3-yl)(4-phenethylpiperazin-1-yl)methanone], the IC50 was above 30 µM in assay [1]; above 30 µM in assay [2]; above 30 µM in assay [3]; 1.1 µM in the assay on SK-Mel-28 melanoma cells; above 30 µM in the assay with A549 lung (NSLC) cells; above 30 µM in assay [4]. The molecule also gave an IC50 in assay [5] above 30 µM.

As for `COc1ccc2c(c1)c(C(=O)N1CCN(CCc3ccc(F)cc3)CC1)c(C)n2CCCN1CCN(C)CC1` [Compound 2056, (4-(4-fluorophenethyl)piperazin-1-yl)(5-methoxy-2-methyl-1-(3-(4-methylpiperazin-1-yl)propyl)-1H-indol-3-yl)methanone], the IC50 in assay [1] amounted to 11.2 µM; in assay [2] it was 13.9 µM; in assay [3], 10.8 µM; in the assay with SK-Mel-28 melanoma cells, 4.8 µM; in the assay on A549 lung (NSLC) cells, 14.7 µM; in assay [4] it was 10.1 µM. For the same molecule, the IC50 in assay [5] is 18.9 µM.

Turning to `COc1ccc(CCN2CCN(C(=O)c3c(C)n(CCCN4CCN(C)CC4)c4ccc(OC)cc34)CC2)cc1` [Compound 2057, (5-methoxy-2-methyl-1-(3-(4-methylpiperazin-1-yl)propyl)-1H-indol-3-yl)(4-(4-methoxyphenethyl)piperazin-1-yl)methanone], the IC50 in assay [1] stood at 7.2 µM; in assay [2] it was 7.5 µM; in assay [3], 9 µM; in the assay with SK-Mel-28 melanoma cells it was 4.4 µM; with A549 lung (NSLC) cells, 21.1 µM; in assay [4] it was 13.3 µM. Also, in assay [5], the IC50 came out at 30 µM.

For `COc1ccc2c(c1)c(C(=O)N1CCN(CCc3ccc4c(c3)OCO4)CC1)c(C)n2CCCN1CCN(C)CC1` [Compound 2058, (4-(2-(benzo[d][1,3]dioxol-5-yl)ethyl)piperazin-1-yl)(5-methoxy-2-methyl-1-(3-(4-methylpiperazin-1-yl)propyl)-1H-indol-3-yl)methanone], the IC50 in assay [1] was 8 µM; in assay [2], 29.8 µM; in assay [3], 12 µM; in the assay on SK-Mel-28 melanoma cells it was 4.8 µM; in the assay on A549 lung (NSLC) cells it was 13.9 µM; in assay [4], 10.8 µM. The molecule also came in with an IC50 in assay [5] of 21.1 µM.

Regarding `COc1ccc2c(c1)c(C(=O)N1CCN(CCc3cccc(F)c3)CC1)c(C)n2CCCN1CCN(C)CC1` [Compound 2059, (4-(3-fluorophenethyl)piperazin-1-yl)(5-methoxy-2-methyl-1-(3-(4-methylpiperazin-1-yl)propyl)-1H-indol-3-yl)methanone], the IC50 turned out to be 4.2 µM in assay [1]; 7 µM in assay [2]; 9.2 µM in assay [3]; 3.8 µM in the assay on SK-Mel-28 melanoma cells; 10.2 µM with A549 lung (NSLC) cells; 19.6 µM in assay [4]. For the same molecule, the IC50 in assay [5] was determined as 10.1 µM.

For `COc1cccc(CCN2CCN(C(=O)c3c(C)n(CCCN4CCN(C)CC4)c4ccc(OC)cc34)CC2)c1` [Compound 2060, (5-methoxy-2-methyl-1-(3-(4-methylpiperazin-1-yl)propyl)-1H-indol-3-yl)(4-(3-methoxyphenethyl)piperazin-1-yl)methanone], the IC50 in assay [1] was 10.8 µM; in assay [2], 6.1 µM; in assay [3] it was above 30 µM; in the assay with SK-Mel-28 melanoma cells, 7.5 µM; in the assay with A549 lung (NSLC) cells it was above 30 µM; in assay [4], above 30 µM. This molecule came in with an IC50 in assay [5] above 30 µM.
